Measured values taken from ChEMBL document CHEMBL1201862, “PubChem BioAssay data set” (2004).
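Cultured in 96-well plates, cells were exposed to test compound for 48 hours across five concentrations. GI50 is the concentration that inhibits growth by half.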 Calls of active or inactive are those of the source. Rule as the data show it: active = GI50 up to about 1.1 µM and inactive = higher.

Columns and labels:
Assay in all cases: DTP human tumour cell line panel, 48 h
[1] = system: T47D
[2] = system: SK-OV-3
[3] = system: UACC-257
[4] = system: TK-10
[5] = system: NCI-H522
[6] = system: EKVX
[7] = system: MDA-MB-231
[8] = system: SN12C
[9] = system: MDA-N
[10] = system: RXF 393
[11] = system: SNB-75
[12] = system: OVCAR-8
[13] = system: DU-145
[14] = system: CCRF-CEM
[15] = system: RPMI-8226
[16] = system: Hs-578T
[17] = system: CAKI-1
[18] = system: OVCAR-5
[19] = system: IGROV-1
[20] = system: SNB-19
[21] = system: A498
[22] = system: SR
[23] = system: MOLT-4
[24] = system: SF-295
[25] = system: SK-MEL-28
[26] = system: SF-539
[27] = system: HOP-62
[28] = system: MDA-MB-435
[29] = system: ACHN
[30] = system: LOX IMVI
[31] = system: Malme-3M
[32] = system: HCC 2998
[33] = system: NCI-H23
[34] = system: NCI-H226
[35] = system: UO-31
[36] = system: UACC-62
[37] = system: HT-29
[38] = system: COLO 205
[39] = system: U-251
[40] = system: SW-620
[41] = system: KM12
[42] = system: 786-0
[43] = system: SK-MEL-2
[44] = system: NCI-H460
[45] = system: OVCAR-4
[46] = system: PC-3
[47] = system: A549
[48] = system: HCT-116
[49] = system: HL-60
[50] = system: K562
[51] = system: HCT-15
[52] = system: NCI/ADR-RES
[53] = system: SK-MEL-5
[54] = system: SF-268
[55] = system: HOP-92
[56] = system: M14
[57] = system: OVCAR-3
[58] = system: MCF7
[59] = system: BT-549

SMILES: O=C1C(=O)N(C23CC4CC(CC(C4)C2)C3)C(=S)N1c1ccccc1
- GI50 [1]: > 100 µM (inactive)
- GI50 [2]: > 100 µM (inactive)
- GI50 [3]: 32.7 µM (inactive)
- GI50 [4]: 58.9 µM (inactive)
- GI50 [5]: 17.1 µM (inactive)
- GI50 [6]: 43.5 µM (inactive)
- GI50 [7]: > 100 µM (inactive)
- GI50 [8]: > 100 µM (inactive)
- GI50 [9]: > 100 µM (inactive)
- GI50 [10]: > 100 µM (inactive)
- GI50 [11]: > 100 µM (inactive)
- GI50 [12]: 97.9 µM (inactive)
- GI50 [13]: > 100 µM (inactive)
- GI50 [14]: 29 µM (inactive)
- GI50 [15]: > 100 µM (inactive)
- GI50 [16]: > 100 µM (inactive)
- GI50 [17]: > 100 µM (inactive)
- GI50 [18]: > 100 µM (inactive)
- GI50 [19]: > 100 µM (inactive)
- GI50 [20]: > 100 µM (inactive)
- GI50 [21]: > 100 µM (inactive)
- GI50 [22]: > 100 µM (inactive)
- GI50 [23]: > 100 µM (inactive)
- GI50 [24]: 97.5 µM (inactive)
- GI50 [25]: > 100 µM (inactive)
- GI50 [26]: > 100 µM (inactive)
- GI50 [27]: > 100 µM (inactive)
- GI50 [28]: > 100 µM (inactive)
- GI50 [29]: > 100 µM (inactive)
- GI50 [30]: > 100 µM (inactive)
- GI50 [31]: > 100 µM (inactive)
- GI50 [32]: > 100 µM (inactive)
- GI50 [33]: 49.1 µM (inactive)
- GI50 [34]: 60 µM (inactive)
- GI50 [35]: > 100 µM (inactive)
- GI50 [36]: > 100 µM (inactive)
- GI50 [37]: > 100 µM (inactive)
- GI50 [38]: > 100 µM (inactive)
- GI50 [39]: > 100 µM (inactive)
- GI50 [40]: > 100 µM (inactive)
- GI50 [41]: > 100 µM (inactive)
- GI50 [42]: > 100 µM (inactive)
- GI50 [43]: 70.8 µM (inactive)
- GI50 [44]: 97.9 µM (inactive)
- GI50 [45]: > 100 µM (inactive)
- GI50 [46]: > 100 µM (inactive)
- GI50 [47]: 65.5 µM (inactive)
- GI50 [48]: 93.5 µM (inactive)
- GI50 [49]: 42.8 µM (inactive)
- GI50 [50]: > 100 µM (inactive)
- GI50 [51]: > 100 µM
- GI50 [52]: 66.2 µM (inactive)
- GI50 [53]: 61.2 µM (inactive)
- GI50 [54]: > 100 µM (inactive)
- GI50 [55]: 30 µM (inactive)

SMILES: COC(CC1(/C=C/O[Si](C(C)C)(C(C)C)C(C)C)C(=O)N(COCC[Si](C)(C)C)c2ccccc21)OC (stereo unspecified)
- GI50 [1]: > 100 µM (inactive)
- GI50 [2]: 20.8 µM (inactive)
- GI50 [3]: 25.5 µM (inactive)
- GI50 [4]: 74.8 µM (inactive)
- GI50 [5]: 6.75 µM (inactive)
- GI50 [7]: 21.1 µM (inactive)
- GI50 [8]: 45.1 µM (inactive)
- GI50 [9]: 24.9 µM (inactive)
- GI50 [10]: 3.9 µM (inactive)
- GI50 [11]: 81.8 µM (inactive)
- GI50 [12]: > 100 µM (inactive)
- GI50 [13]: > 100 µM (inactive)
- GI50 [14]: 13.4 µM (inactive)
- GI50 [15]: > 100 µM (inactive)
- GI50 [16]: > 100 µM (inactive)
- GI50 [17]: 46.3 µM (inactive)
- GI50 [56]: 27.2 µM (inactive)
- GI50 [18]: 37.4 µM (inactive)
- GI50 [19]: 24.5 µM (inactive)
- GI50 [20]: 33.7 µM (inactive)
- GI50 [21]: > 100 µM (inactive)
- GI50 [22]: 21 µM (inactive)
- GI50 [23]: 22.1 µM (inactive)
- GI50 [24]: 7.96 µM (inactive)
- GI50 [25]: 16.6 µM (inactive)
- GI50 [26]: 15.1 µM (inactive)
- GI50 [27]: 66.8 µM (inactive)
- GI50 [28]: 23.2 µM (inactive)
- GI50 [29]: 26.6 µM (inactive)
- GI50 [30]: 20.8 µM (inactive)
- GI50 [32]: 27.9 µM (inactive)
- GI50 [33]: 25.1 µM (inactive)
- GI50 [34]: > 100 µM (inactive)
- GI50 [57]: 13.1 µM (inactive)
- GI50 [35]: 76 µM (inactive)
- GI50 [36]: 18.8 µM (inactive)
- GI50 [37]: 96.4 µM (inactive)
- GI50 [38]: 66.8 µM (inactive)
- GI50 [39]: 31.8 µM (inactive)
- GI50 [40]: 37.2 µM (inactive)
- GI50 [41]: 36.1 µM (inactive)
- GI50 [42]: 31 µM (inactive)
- GI50 [43]: 13.3 µM (inactive)
- GI50 [44]: 23.1 µM (inactive)
- GI50 [45]: 20.8 µM (inactive)
- GI50 [46]: 22.1 µM (inactive)
- GI50 [47]: 36.3 µM (inactive)
- GI50 [48]: 16.1 µM (inactive)
- GI50 [50]: > 100 µM (inactive)
- GI50 [51]: 36.6 µM
- GI50 [52]: > 100 µM (inactive)
- GI50 [53]: 23.1 µM (inactive)
- GI50 [54]: 17 µM (inactive)
- GI50 [55]: 9.48 µM (inactive)

SMILES: Nc1ccc(S(=O)(=O)Nc2nccs2)cc1 [SULFATHIAZOLE]
- GI50 [1]: > 100 µM (inactive)
- GI50 [2]: > 100 µM (inactive)
- GI50 [3]: > 100 µM (inactive)
- GI50 [4]: > 100 µM (inactive)
- GI50 [5]: > 100 µM (inactive)
- GI50 [6]: > 100 µM (inactive)
- GI50 [7]: > 100 µM (inactive)
- GI50 [8]: > 100 µM (inactive)
- GI50 [9]: > 100 µM (inactive)
- GI50 [10]: > 100 µM (inactive)
- GI50 [11]: 17 µM (inactive)
- GI50 [12]: > 100 µM (inactive)
- GI50 [13]: > 100 µM (inactive)
- GI50 [14]: > 100 µM (inactive)
- GI50 [15]: > 100 µM (inactive)
- GI50 [56]: > 100 µM (inactive)
- GI50 [18]: > 100 µM (inactive)
- GI50 [19]: > 100 µM (inactive)
- GI50 [20]: > 100 µM (inactive)
- GI50 [21]: > 100 µM (inactive)
- GI50 [22]: > 100 µM (inactive)
- GI50 [23]: > 100 µM (inactive)
- GI50 [24]: > 100 µM (inactive)
- GI50 [25]: > 100 µM (inactive)
- GI50 [26]: > 100 µM (inactive)
- GI50 [27]: > 100 µM (inactive)
- GI50 [28]: > 100 µM (inactive)
- GI50 [29]: > 100 µM (inactive)
- GI50 [30]: > 100 µM (inactive)
- GI50 [31]: > 100 µM (inactive)
- GI50 [32]: > 100 µM (inactive)
- GI50 [33]: > 100 µM (inactive)
- GI50 [34]: > 100 µM (inactive)
- GI50 [57]: > 100 µM (inactive)
- GI50 [35]: > 100 µM (inactive)
- GI50 [36]: > 100 µM (inactive)
- GI50 [37]: > 100 µM (inactive)
- GI50 [58]: > 100 µM (inactive)
- GI50 [38]: > 100 µM (inactive)
- GI50 [39]: > 100 µM (inactive)
- GI50 [40]: > 100 µM (inactive)
- GI50 [41]: > 100 µM (inactive)
- GI50 [42]: > 100 µM (inactive)
- GI50 [43]: > 100 µM (inactive)
- GI50 [44]: > 100 µM (inactive)
- GI50 [45]: > 100 µM (inactive)
- GI50 [46]: > 100 µM (inactive)
- GI50 [47]: > 100 µM (inactive)
- GI50 [48]: > 100 µM (inactive)
- GI50 [49]: > 100 µM (inactive)
- GI50 [59]: > 100 µM (inactive)
- GI50 [50]: > 100 µM (inactive)
- GI50 [51]: > 100 µM
- GI50 [52]: > 100 µM (inactive)
- GI50 [53]: > 100 µM (inactive)
- GI50 [54]: > 100 µM (inactive)
- GI50 [55]: 0.0101 µM (active)
